Results reported in US10814010B2, “FOXC2 inhibitor and methods of use thereof” (The Board of Regents of The University of Texas System, priority 2018, dated 2020).

Tests used:
Assay type in all cases: cell-based
FOXC2 = target: T1, FOXC2 (Homo sapiens, UniProt Q99958); assay: Western blot of FOXC2 protein level and nuclear localization in MDA-MB-231; details: MDA-MB-231, 20 μM
T1 construct: endogenous in cells; host or cells: MDA-MB-231
T1 sequence (Q99958 1-501): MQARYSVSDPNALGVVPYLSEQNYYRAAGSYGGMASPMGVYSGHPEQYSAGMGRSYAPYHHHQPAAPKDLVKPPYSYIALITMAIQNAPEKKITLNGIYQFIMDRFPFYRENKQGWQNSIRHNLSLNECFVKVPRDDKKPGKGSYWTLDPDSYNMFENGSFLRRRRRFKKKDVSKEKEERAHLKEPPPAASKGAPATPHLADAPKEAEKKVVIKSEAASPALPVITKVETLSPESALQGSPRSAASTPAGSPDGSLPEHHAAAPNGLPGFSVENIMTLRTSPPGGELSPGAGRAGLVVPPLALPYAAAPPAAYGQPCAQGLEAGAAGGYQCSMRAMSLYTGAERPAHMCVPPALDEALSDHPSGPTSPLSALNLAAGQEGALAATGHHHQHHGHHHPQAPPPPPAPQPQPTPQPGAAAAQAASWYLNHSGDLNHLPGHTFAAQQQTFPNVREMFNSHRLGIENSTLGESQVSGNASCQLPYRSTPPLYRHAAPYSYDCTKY
Excerpt: As a transcription factor, FOXC2 needs to localize into the nucleus to promote the transcription of target genes. Therefore, a small molecule that blocks nuclear localization of FOXC2 is expected to inhibit EMT. […] Putative kinases that phosphorylate FOXC2 have been proposed (Werden et al., 2016; Ivanov et al., 2013; Golden & Cantley, 2014). It is possible that MC-1-F2 disrupts the protein-protein interaction between FOXC2 and its kinase, resulting in the decease of FOXC2 nuclear localization. Investigation into the exact mechanism by which MC-1-F2 inhibits FOXC2 phosphorylation and nuclear localization is underway.
50 μg of total protein per sample was incubated with 4× loading buffer at 100° C. for 5 min. Protein samples were then loaded into a polyacrylamide gel and subjected to SDS-PAGE. Resolved proteins were then transferred by a wet transfer method to a PVDF membrane at 100 V for 1 hour using a BioRad Mini Trans-Blot Electrophoresis Transfer Cell. Upon the completion of wet transfer, the membrane was then blocked with 5% (w/v) fat-free milk in 1× Tris-buffered saline/0.1% (v/v) Tween-20 (TBS-T) for at least 1 hour. Then incubated with the respective primary antibodies diluted in 5% BSA in 1×TBST at 4° C. overnight. The following day exposed to 1:1000 dilution of anti-mouse or anti-rabbit HRP-conjugated secondary antibodies in 5% (w/v) fat-free milk in 1×TBS-T for 1 hour at room temperature. The probed proteins were then detected for chemiluminescent signal using SuperSignal Chemiluminescent Substrate (PIERCE). Pierce antibodies: B-actin, and all other antibodies used are from cell signaling. MG132 treatment was added to cells (0.5 μM) for 1-hour incubation prior to compound treatment, no more than 24 hours total exceeded during MG132 incubation.

MDA-MB-231 cells [1] = assay: Soft-agar colony forming assay, MDA-MB-231; details: MDA-MB-231, soft agar, 20 μM
Experimental: (§1) It was hypothesized that the specific binding of MC-1-F2 can lead to its specific cellular activity against cancer cells with high FOXC2 expression. This hypothesis was tested by evaluating MC-1-F2's cellular activity on cell lines with different FOXC2 expression levels: MCF-7, BT549, and MDA-MB-231. […] However, further studies are still underway. The specificity in cellular activity of MC-1-F2 was further evaluated in the form of a soft-agar colony forming assay to determine if MC-1-F2 was able to inhibit in vitro tumorigenicity of cancer cells in a FOXC2 expression-dependent manner. […] Further testing is underway in various breast cancer cell lines with different FOXC2 expression levels.
Soft-agar colony-formation assay was performed in 6-well plates. 5×10^3 cells were re-suspended into 1.5 mL 0.3% agarose-DMEM mixture, and seeded onto the 0.5% agarose-DMEM base layer. FBS-supplemented DMEM medium (0.2 mL) containing the compound of determined concentrations was added on the top and changed every 3 days. After 10 days incubation in 37° C. incubator with 5% CO2, 0.5 mL of 0.005% crystal violet solution was added to the top of the agarose gel and incubated overnight. The total number of colonies per well that were >100 microns in size when viewed under a simple microscope were counted. Light microscopy images were captured under 20× magnification.

MCF-7 cells = assay: MTT cell viability assay, MCF-7; details: MCF-7, MTT, very low FOXC2 expression
Experimental: as §1
Cell viability was assessed by MTT (3-(4,5-Dimethylthiazol-2-yl)-2,5-Diphenyltetrazolium Bromide) assay. 1×10^4 cells were seeded on 48-well cell culture plate, and were incubated for at least 24 hours prior to drug treatment. The MTT reagent (Fisher Scientific) was added to the culture medium 3 hours prior to the end of compound incubation. The reaction took place in the 37° C. incubator with 5% CO2 for 3 hours. Cell culture medium was then removed from the wells. Cells with the insoluble purple formazan were lysed with DMSO for 10 mins at room temperature, 0.5 ml per well. The solution was aliquot to 96-well plate for absorbance reading at 570 nm using a plate reader.

MDA-MB-231 cells [2] = assay: Wound healing assay, MDA-MB-231; details: MDA-MB-231, 20 μM, 24 hours
Experimental: Reversal of EMT mediated by MC-1-F2 was anticipated to lead to the inhibition of metastatic capability of cancer cells. […] A wound healing assay was carried out to examine the migratory capabilities of cells in closing a “wound” or gap over a period of 24 hours. […] Inhibition of migratory capabilities of cells only measures one aspect of EMT progression. EMT is marked also by increased invasiveness of cancer cells. Therefore, the invasive property of MDA-MB-231 cells treated with MC-1-F2 was examined (FIGS. 6B&C).
3×10^5 cells of MDA-MB-231 in 70 μL of DMEM media were seeded on an ibidi μ-dish (Ibidi) and incubated for 24 hours. The insert was removed carefully with tweezers, to create the “wound” and the dish rinsed with DPBS. Followed by the addition of DMEM media with applicable drug. Images were taken at various time points and monitoring of the migration of cells into the “gap” was recorded at several time points.

In the case of `N=C(N)NCCCCNc1nc(Nc2ccc(Oc3ccccc3)cc2)nc(N2CCN(c3nc(N)nc(Nc4ccc(N5CCOCC5)cc4)n3)CC2)n1` [MC-1-F2], the FOXC2 protein level (FOXC2; 24 hours, absence of MG132) is reported as “decrease in FOXC2 protein level”, the “FOXC2 protein level in presence of MG132” value (FOXC2; 24 hours, with 26S proteasome inhibitor MG132) is reported as “prevented by incubating the cells with a 26S proteasome inhibitor, MG132” and the “nuclear localization of FOXC2” value (FOXC2; 48 hours, cytosolic and nuclear fractions) is reported as “decrease in nuclear localization of FOXC2”. For the same compound, the colony forming activity (MDA-MB-231 cells [1]) was “strong inhibition of colony forming activity”, the “inhibition of cell viability” value (MCF-7 cells) was “little inhibition of cell viability” and the “migratory activity / wound closure” value (MDA-MB-231 cells [2]) was “inhibition of the migratory activity”.
